From patent US20250051275A1, “PYRROLE DERIVATIVE OR PHARMACEUTICALLY OR SITOLOGICALLY ACCEPTABLE SALTS THEREOF, AND COMPOSITION FOR PREVENTION, AMELIORATION OR TREATMENT OF GASTROINTESTINAL DISORDERS COMPRISING SAME AS ACTIVE INGREDIENT” (HANA PHARM CO., LTD., priority 2021, published 2025)
Read-outs that look alike come from different tables or passages of the source.

Tests used:
[1] = Storage stability (related substance identification test); assay type: physicochemical; details: for storage stability: stored at −2 to 8° C., in % (unit assumed)
Source text: An attempt was made to evaluate the storage stability over time of the compound of Example 7 of the present invention and the compound of Comparative Example 1 (which is the deuterium-unsubstituted form of the compound of Example 7) depending on the presence of deuterium substitution.

[2] = system: human gastric cancer cells (AGS Cells); assay: MTS assay, inhibition of proliferation of human gastric cancer cells (AGS Cells); assay type: cell-based; details: 48 hours
Experimental: To examine the effect of inhibiting the proliferation of the compounds indicated in the examples of the present invention on human gastric cancer cells (AGS Cells), MTS Assay experiments were in vitro performed. AGS cells were cultured in a 5% CO2 incubator at 37° C. by using RPMI 1640 medium containing 1% penicillin-streptomycin and 10% fetal bovine serum. The cells in culture were separated with using 0.25% Trypsin-0.02% EDTA every 3 to 4 days and subcultured.
For the experiment, the cultured cells were treated with 0.25% Trypsin-0.02% EDTA solution, the suspended cells were centrifuged at 1,200 rpm for 5 minutes, the supernatant was discarded, a culture medium was added thereto, and a cell suspension was made with the culture medium. Using a hemocytometer, 10,000 cells per well were dispensed into 96-well plates and cultured. After 24 hours, when the cells attached to the plate, the culture medium was discarded, and the cells were treated with new culture media prepared by concentration (test concentrations: 500 μm, 250 μm, 125 μm, 63 μm, 31 μm, 16 μm, 8 μm, 4 μm, and 2 μm) and cultured in a CO2 incubator for 48 hours. After treating with an MTS solution, the cells were incubated in a CO2 incubator for 1 hour, and the absorbance was measured at 490 nm by using a microplate reader device. The cell proliferation inhibition rate was expressed as IC50, which is 50% inhibition of cell proliferation, using GraphPad Prism 5.
In Table 2 below, the IC50 value is indicated as “+++” for 0 to 50 μM, “++” for 51 to 100 μM, and “+” for 101 to 400 μM.

[3] = molecular target: proton pump (H+/K+-ATPase) (Sus scrofa (Pig), UniProt P19156); assay: Inhibitory activity on proton pump (H+/K+-ATPase) activity; assay type: biochemical; details: porcine gastric mucosal microsomes, 5 mM KCl, pH 6.4
Experimental: The compounds indicated in the above examples were tested for their inhibitory activity on proton pump (H+/K+-ATPase) activity as follows by applying the method disclosed in the literature. According to the methods of Nobuyuki Takahashi and Yukinori Take [J Pharmacol Exp Ther. 2018 February; 364(2):275-286], the gastric mucosal microsome fraction was isolated from the porcine stomach. The stomach isolated from the pig was washed first with tap water, only the fundus was cut, and then washed (a second time) with cold PBS. The gastric mucosa was separated by scraping, homogenized with 250 mM sucrose solution, and centrifuged at 20,000 g at 4° C. for 30 minutes. Only the supernatant was centrifuged at 115,000 g at 4° C. for 30 minutes, and the precipitate was suspended in 250 mM sucrose solution, added to cover with 7% Ficoll solution, and centrifuged at 135,000 g at 4° C. for 60 minutes. The microsome fraction formed at the interface was recovered and suspended in 250 mM sucrose solution, and centrifuged at 135,000 g, 4° C. for 60 minutes, and the precipitate was dissolved in 0.9% NaCl. The isolated gastric mucosal microsome fraction was quantified by using the Bicinchoninic Acid (BCA) kit (Thermo).
60 μl of enzyme reaction solution (a test compound at a given concentration, […] of gastric mucosal microsomes, 3 mM of MgSO4, 5 mM of KCl, 40 mM of Tris-HCl pH 6.4, and 0.5 mM of adenosine triphosphate) was added to each well of a 96-well plate and reacted at 37° C. for 60 minutes, and 30 μl of 10% SIDS was added to stop the enzyme reaction. 200 μl of detection solution (in which 10% L-ascorbic acid with pH 5.0 was mixed with 35 mM of ammonium molybdate tetrahydrate/15 mM of zinc acetate with pH 5.0 at the ratio of 4:1) was added and reacted at 37° C. for 30 minutes, and the absorbance value was measured at 750 nm by using a microplate reader (MULTISKAN GO, Thermo). The inhibition rate of proton pump activity was expressed as I050, which is 50% inhibition of enzyme activity, by using GraphPad Prism 5. In Table 1 below, an I050 value of 100 nM or less is indicated by +++, an I050 value of 101 to 200 nM is indicated by ++, and an I050 value of above 200 nM is indicated by +.

[4] = Homo sapiens, read-out: Proliferation inhibitory effect of gastric cancer cells (IC50)
[5] = Homo sapiens, read-out: Proliferation inhibitory effect of gastric cancer cells (IC50, μM), class symbol
[6] = read-out: Proton pump inhibitory activity (IC50)
[7] = read-out: Proton pump inhibitory activity (IC50, nM), class symbol

Sequence of proton pump (H+/K+-ATPase) (P19156 2-1034): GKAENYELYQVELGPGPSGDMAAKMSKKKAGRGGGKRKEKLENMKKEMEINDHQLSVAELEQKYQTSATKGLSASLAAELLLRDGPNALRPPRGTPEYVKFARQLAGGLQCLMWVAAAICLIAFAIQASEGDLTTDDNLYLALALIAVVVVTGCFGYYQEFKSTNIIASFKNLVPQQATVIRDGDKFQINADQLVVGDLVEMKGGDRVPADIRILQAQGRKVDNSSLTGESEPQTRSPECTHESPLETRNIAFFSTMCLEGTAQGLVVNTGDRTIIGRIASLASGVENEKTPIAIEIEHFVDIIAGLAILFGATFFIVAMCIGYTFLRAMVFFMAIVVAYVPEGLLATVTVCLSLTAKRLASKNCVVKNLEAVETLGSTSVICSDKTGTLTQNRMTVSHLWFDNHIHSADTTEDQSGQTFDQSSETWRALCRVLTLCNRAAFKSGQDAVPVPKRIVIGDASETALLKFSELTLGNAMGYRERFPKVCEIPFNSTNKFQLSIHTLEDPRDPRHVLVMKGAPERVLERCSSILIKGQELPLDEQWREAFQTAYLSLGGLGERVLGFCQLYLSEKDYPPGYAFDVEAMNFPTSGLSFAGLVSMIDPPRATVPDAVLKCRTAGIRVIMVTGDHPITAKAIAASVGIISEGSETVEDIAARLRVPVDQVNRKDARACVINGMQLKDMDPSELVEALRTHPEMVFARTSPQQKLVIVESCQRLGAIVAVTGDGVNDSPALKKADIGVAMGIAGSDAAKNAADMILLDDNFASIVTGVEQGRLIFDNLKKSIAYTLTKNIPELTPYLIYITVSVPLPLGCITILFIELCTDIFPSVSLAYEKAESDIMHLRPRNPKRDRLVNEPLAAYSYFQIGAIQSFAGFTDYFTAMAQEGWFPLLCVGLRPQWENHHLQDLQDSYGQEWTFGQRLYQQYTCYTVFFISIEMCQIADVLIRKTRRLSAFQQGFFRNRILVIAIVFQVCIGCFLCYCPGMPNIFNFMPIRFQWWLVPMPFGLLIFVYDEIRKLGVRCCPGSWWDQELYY
Sequence of proton pump (H+/K+-ATPase) (P18434 whole entry partner): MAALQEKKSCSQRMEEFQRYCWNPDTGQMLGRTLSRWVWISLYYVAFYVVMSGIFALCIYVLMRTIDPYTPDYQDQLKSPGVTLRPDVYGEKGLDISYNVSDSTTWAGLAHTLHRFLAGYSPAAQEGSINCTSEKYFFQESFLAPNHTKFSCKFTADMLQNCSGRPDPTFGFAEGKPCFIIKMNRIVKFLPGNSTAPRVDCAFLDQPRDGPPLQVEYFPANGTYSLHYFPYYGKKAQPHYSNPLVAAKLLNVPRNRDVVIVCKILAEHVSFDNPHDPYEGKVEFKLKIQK

Compound | IC50 [2, 4] | IC50 [2, 5] | IC50 [3, 6] | IC50 [3, 7] | other results
CNCc1cc(-c2ccccc2F)n(S(=O)(=O)c2ccc(F)cc2)c1 [Comparative Example 1, reference compound] |  |  |  |  | storage stability, Results ([1]; stored at −2 to 8° C. for 3 months): Unstable; storage stability ([1]; 1st week): 90.61; storage stability ([1]; 2nd week): 81.40; storage stability ([1]; 3 months): 53.8; storage stability ([1]; 3rd week): 76.47; storage stability ([1]; 4th week): 70.39; storage stability ([1]; Initial): 97.99
COc1ccc2nc([S@@+]([O-])Cc3ncc(C)c(OC)c3C)[nH]c2c1 [Control Drug 2 (Esomeprazole), 6-methoxy-2-[(S)-(4-methoxy-3,5-dimethylpyridin-2-yl)methylsulfinyl]-1H-benzimidazole, reference compound] | 194 µM | 101 to 400 µM |  |  | 
N.N.[Cl][Pt][Cl] [Control Drug 3 (Cisplatin), diamminedichloridoplatinum(II), reference compound] |  |  |  |  | IC50 ([2]; read-out: Proliferation inhibitory effect of gastric cancer cells (IC50)): 19.2 µM; IC50 ([2]; read-out: Proliferation inhibitory effect of gastric cancer cells (IC50, μM), class symbol): < 50 µM
[2H]C([2H])([2H])NCc1cc(-c2ccccc2F)n(S(=O)(=O)c2ccc(C)cc2)c1 [Example 2, N-((5-(2-fluorophenyl)-1-tosyl-1H-pyrrol-3-yl)methyl)methan-d3-amine] | 17.5 µM | < 50 µM | 68 nM | ≤ 100 nM | 
[2H]C([2H])([2H])NCc1cc(-c2ccccc2F)n(S(=O)(=O)c2ccc(OC)cc2)c1 [Example 3, N-((5-(2-fluorophenyl)-1-((4-methoxyphenyl)sulfonyl)-1H-pyrrol-3-yl)methyl)methan-d3-amine] | 3.5 µM | < 50 µM | 48 nM | ≤ 100 nM | 
[2H]C([2H])([2H])NCc1cc(-c2ccccc2F)n(S(=O)(=O)c2ccc(C#N)cc2)c1 [Example 4, 4-((2-(2-fluorophenyl)-4-(((methyl-d3)amino)methyl)-1H-pyrrol-1-yl)sulfonyl)benzonitrile] | 32.7 µM | < 50 µM | 90 nM | ≤ 100 nM | 
[2H]C([2H])([2H])NCc1cc(-c2ccccc2F)n(S(=O)(=O)c2ccc(Br)cc2)c1 [Example 5, N-((1-((4-bromophenyl)sulfonyl)-5-(2-fluorophenyl)-1H-pyrrol-3-yl)methyl)methan-d3-amine] |  |  | 36 nM | ≤ 100 nM | 
[2H]C([2H])([2H])NCc1cc(-c2ccccc2F)n(S(=O)(=O)c2ccc(Cl)cc2)c1 [Example 6, N-((1-((4-chlorophenyl)sulfonyl)-5-(2-fluorophenyl)-1H-pyrrol-3-yl)methyl)methan-d3-amine] | 21.7 µM | < 50 µM | 26 nM | ≤ 100 nM | 
[2H]C([2H])([2H])NCc1cc(-c2ccccc2F)n(S(=O)(=O)c2ccc(OC(F)(F)F)cc2)c1 [Example 8, N-((5-(2-fluorophenyl)-1-((4-(trifluoromethoxy)phenyl)sulfonyl)-1H-pyrrol-3-yl)methyl)methan-d3-amine] | 12.2 µM | < 50 µM | 51 nM | ≤ 100 nM | 
[2H]C([2H])([2H])NCc1cc(-c2cccc(F)c2)n(S(=O)(=O)c2ccc(Cl)cc2)c1 [Example 10, N-((1-((4-chlorophenyl)sulfonyl)-5-(3-fluorophenyl)-1H-pyrrol-3-yl)methyl)methan-d3-amine] |  |  | 60 nM | ≤ 100 nM | 
[2H]C([2H])([2H])NCc1cc(-c2cccc(F)c2)n(S(=O)(=O)c2ccc(OC)cc2)c1 [Example 11, N-((5-(3-fluorophenyl)-1-((4-methoxyphenyl)sulfonyl)-1H-pyrrol-3-yl)methyl)methan-d3-amine] |  |  | 76 nM | ≤ 100 nM | 
[2H]C([2H])([2H])NCc1cc(-c2ccc(F)cc2F)n(S(=O)(=O)c2ccc(Br)cc2)c1 [Example 13, N-((1-((4-bromophenyl)sulfonyl)-5-(2,4-difluorophenyl)-1H-pyrrol-3-yl)methyl)methan-d3-amine] | 14.2 µM | < 50 µM |  |  | 
[2H]C([2H])([2H])NCc1cc(-c2ccc(F)cc2F)n(S(=O)(=O)c2ccc(C)cc2)c1 [Example 16, N-((5-(2,4-difluorophenyl)-1-tosyl-1H-pyrrol-3-yl)methyl)methane-d3-amine] |  |  | 82 nM | ≤ 100 nM | 
[2H]C([2H])([2H])NCc1cc(-c2ccc(F)cc2F)n(S(=O)(=O)c2ccc(OC)cc2)c1 [Example 17, N-((5-(2,4-difluorophenyl)-1-((4-methoxyphenyl)sulfonyl)-1H-pyrrol-3-yl)methyl)methan-d3-amine] |  |  | 84 nM | ≤ 100 nM | 
[2H]C([2H])([2H])NCc1cc(-c2cccc(F)c2)n(S(=O)(=O)c2ccc(C#N)cc2)c1 [Example 22, 4-((2-(3-fluorophenyl)-4-(((methyl-d3)amino)methyl)-1H-pyrrol-1-yl)sulfonyl)benzonitrile] | 22.6 µM | < 50 µM |  |  | 
[2H]C([2H])([2H])NCc1cc(-c2ccc(F)cc2)n(S(=O)(=O)c2ccc(F)cc2)c1 [Example 24, N-((5-(4-fluorophenyl)-1-((4-fluorophenyl)sulfonyl)-1H-pyrrol-3-yl)methyl)methan-d3-amine] | 41.5 µM | < 50 µM |  |  | 
[2H]C([2H])([2H])NCc1cc(-c2ccc(F)cc2)n(S(=O)(=O)c2ccc(Br)cc2)c1 [Example 25, N-((1-((4-bromophenyl)sulfonyl)-5-(4-fluorophenyl)-1H-pyrrol-3-yl)methyl)methan-d3-amine] | 24.8 µM | < 50 µM |  |  | 
[2H]C([2H])([2H])NCc1cc(-c2ccc(F)cc2)n(S(=O)(=O)c2ccc(Cl)cc2)c1 [Example 26, N-((1-((4-chlorophenyl)sulfonyl)-5-(4-fluorophenyl)-1H-pyrrol-3-yl)methyl)methan-d3-amine] | 13.2 µM | < 50 µM |  |  | 
[2H]C([2H])([2H])NCc1cn(S(=O)(=O)c2ccc(OC)nc2)c(-c2ccc(F)cc2F)c1OC [Example 37, N-((5-(2,4-difluorophenyl)-4-methoxy-1-((6-methoxypyridin-3-yl)sulfonyl)-1H-pyrrol-3-yl)methyl) methane-d3-amine] |  |  | 88 nM | ≤ 100 nM | 
[2H]C([2H])([2H])NCc1cn(S(=O)(=O)c2cccnc2)c(-c2c(F)cc(F)cc2F)c1OC [Example 39, N-((4-methoxy-1-(pyridin-3-ylsulfonyl)-5-(2,4,6-trifluorophenyl)-1H-pyrrol-3-yl)methyl)methan-d3-amine] |  |  | 38 nM | ≤ 100 nM | 
[2H]C([2H])([2H])NCc1cn(S(=O)(=O)c2ccc(OC)nc2)c(-c2c(F)cc(F)cc2F)c1OC [Example 40, N-((4-methoxy-1-((6-methoxypyridin-3-yl)sulfonyl)-5-(2,4,6-trifluorophenyl)-1H-pyrrol-3-yl)methyl)methane-d3-amine] |  |  | 64 nM | ≤ 100 nM | 
